From patent US20240115557A1, “INHIBITORS OF RNA-GUIDED NUCLEASES AND USES THEREOF” (The Brigham and Women's Hospital, Inc., priority 2022, published 2024)

Assays:
SpCas9 [1] = biological target: T1, SpCas9 (Streptococcus pyogenes serotype M1, UniProt Q99ZW2); assay: HiBiT knock-in assay, SpCas9, HEK293T cells; assay type: cell-based
Text: Primary and secondary screening. The primary screen assayed a selection of unique chemical scaffolds derived from commercially available compounds and known bioactive molecular libraries (Table 7). Auto-fluorescent compounds were removed by a counter screen. Overall, the CAA was used to assay 122,409 small molecules with over 2,500 unique chemical scaffolds (FIG. 64F, Table 7). Of these compounds, 547 were selected as hits (Z score >3 in both replicates) for testing in orthogonal cell-based secondary assays. Hits were tested in duplicate in an eGFP disruption assay, wherein U2OS.eGFP.PEST cells^33 transfected with SpCas9 plasmid and eGFP-targeting gRNA plasmid were incubated with 20 μM of the compounds. In this assay, any compound that inhibited SpCas9 would rescue the loss of eGFP fluorescence. Here, toxic and auto-fluorescent compounds with a high GFP signal in cells were removed as false positives. […] Next, Applicants tested the 15 compounds in a luminescence-based gain-of-signal HiBiT knock-in assay, which involves SpCas9-mediated homology-directed tagging of GAPDH with a short peptide that luminesces upon complementation with a subunit derived from nanoluciferase.^34 Complementarily, the eGFP-disruption assay is fluorescence-based and involves error-prone DNA repair. As a counter-screen to remove false positives caused by cell death (viability <80%), the cell viability was measured after incubation.
Approximately 400,000 HEK293T cells were nucleofected with 400 ng of SpCas9 plasmid, 40 ng of GAPDH-targeting gRNA plasmid, and 40 pmol of single-strand oligodeoxynucleotide (ssODN) using SF Cell Line 4D-Nucleofector X Kit (Lonza) following the pulse program of DS-150. For RNP-based genome editing, 10 pmol of Cas9 and 12 pmol of gRNA were mixed and incubated for 5 min. Then, 20 pmol of ssODN was added. Cells were nucleofected with the resulting mixture using the same pulse program. Cells were then transferred to a 96-well plate at the density of 35,000 cells per well, and incubated with indicated amount of compounds for 24 h. Cell viability was measured using PrestoBlue reagent (Thermo) with a SpectraMax M5 (Molecular Devices) at the excitation and emission wavelength of 544 nm and 590 nm, respectively. Next, luminescence measurement was performed using the Nano-Glo HiBiT Lytic Detection System (Promega) according to the manufacturer's protocol with an EnVision Multilabel Plate Reader (PerkinElmer) at the integration time of 0.5 s per well. The resulting luminescence signals were normalized based on the cell viability.^34

SpCas9 [2] = biological target: T1, SpCas9; assay: eGFP disruption assay, SpCas9, U2OS.eGFP.PEST cells; assay type: cell-based; details: for % GFP+, Rep 1 / Z score Rep1 / Normalized Z rep1: replicate 1; for % GFP+, Rep 2 / Z socre Rep2 / Normalized Z rep2: replicate 2; for SpCas9 eGFP disruption Rep1: replicate 1, raw readout; for SpCas9 eGFP disruption Rep1 / SpCas9 eGFP disruption Rep2: Cas9 = lower control, Ctrl = upper control; for Normalized Z rep1 / Normalized Z rep2: lower control about 0, upper control about 1; for SpCas9 eGFP disruption Rep2: replicate 2, raw readout
Procedure, shortened: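 Rescue of eGFP signal lost through Cas9-induced NHEJ indels serves as the inhibition read-out, after 24 h compound exposure (20 μM for hits, variable for dose-response). Editing was delivered by nucleofection into U2OS.eGFP.PEST cells as SpCas9/gRNA plasmids (300/30 ng) or RNP (10/12 pmol). Toxic and autofluorescent compounds were excluded.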

SpCas9 [3] = biological target: T1, SpCas9; assay: Strand displacement assay (SDA) / cumulative activity assay (CAA), SpCas9 primary screen; assay type: biochemical; details: Primary Screen (150 min); for Normalized Z score 1: replicate 1; for Normalized Z score 2: replicate 2
Procedure, shortened: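 SpCas9:gRNA RNP in 20 mM Tris-HCl pH 7.5, 100 mM KCl, 5 mM MgCl2 was used at 10 nM (2× stock) with Alexa Fluor 647-labelled substrate and excess quencher strand (1 nM and 5 nM, 2× stocks). Fluorescence was read after 2.5 h at 37 °C, where cleavage lets the quencher strand anneal.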

FnCpf1 = FnCpf1 (Francisella tularensis subsp. novicida, UniProt A0Q7Q2); assay type: biochemical; details: 20 uM
FnCpf1, sequence (A0Q7Q2 whole entry, looked up): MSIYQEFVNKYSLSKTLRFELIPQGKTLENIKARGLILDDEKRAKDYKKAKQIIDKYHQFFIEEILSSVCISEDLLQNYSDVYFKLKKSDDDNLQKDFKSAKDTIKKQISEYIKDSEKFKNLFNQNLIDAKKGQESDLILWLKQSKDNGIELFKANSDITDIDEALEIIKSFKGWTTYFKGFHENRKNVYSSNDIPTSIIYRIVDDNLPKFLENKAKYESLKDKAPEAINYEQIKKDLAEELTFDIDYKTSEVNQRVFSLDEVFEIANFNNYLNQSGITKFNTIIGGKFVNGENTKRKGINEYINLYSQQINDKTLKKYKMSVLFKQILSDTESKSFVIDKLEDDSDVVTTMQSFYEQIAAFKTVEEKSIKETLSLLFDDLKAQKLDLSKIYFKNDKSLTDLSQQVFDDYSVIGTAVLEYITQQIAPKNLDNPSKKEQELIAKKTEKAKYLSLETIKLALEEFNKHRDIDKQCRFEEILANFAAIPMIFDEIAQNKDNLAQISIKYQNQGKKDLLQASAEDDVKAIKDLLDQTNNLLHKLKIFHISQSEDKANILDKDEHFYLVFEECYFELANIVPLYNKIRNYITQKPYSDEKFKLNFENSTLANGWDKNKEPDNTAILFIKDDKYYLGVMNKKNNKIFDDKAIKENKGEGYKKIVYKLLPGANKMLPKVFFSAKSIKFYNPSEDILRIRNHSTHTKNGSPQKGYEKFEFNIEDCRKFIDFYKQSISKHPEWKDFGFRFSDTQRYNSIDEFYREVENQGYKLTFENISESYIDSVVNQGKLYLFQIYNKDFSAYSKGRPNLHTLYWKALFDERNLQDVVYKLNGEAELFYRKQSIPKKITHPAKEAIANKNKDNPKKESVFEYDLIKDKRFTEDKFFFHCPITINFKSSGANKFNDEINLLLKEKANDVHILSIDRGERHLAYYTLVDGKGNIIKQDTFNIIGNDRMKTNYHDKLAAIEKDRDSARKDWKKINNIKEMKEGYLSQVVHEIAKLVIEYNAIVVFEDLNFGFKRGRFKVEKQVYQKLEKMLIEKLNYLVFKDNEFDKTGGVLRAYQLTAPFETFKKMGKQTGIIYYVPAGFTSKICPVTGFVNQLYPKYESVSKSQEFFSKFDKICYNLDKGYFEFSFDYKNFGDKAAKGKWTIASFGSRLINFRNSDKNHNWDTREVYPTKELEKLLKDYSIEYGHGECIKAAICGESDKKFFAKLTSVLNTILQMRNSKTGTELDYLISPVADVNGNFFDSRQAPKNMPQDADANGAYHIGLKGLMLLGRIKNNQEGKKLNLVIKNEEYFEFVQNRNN

[4] = tested on: restriction endonuclease Nde1; assay: Gel cleavage specificity assay, Nde1; assay type: biochemical; details: 20 uM
SpCas9:gRNA complex [5] = biological target: T2, SpCas9:gRNA complex (Streptococcus pyogenes serotype M1, UniProt Q99ZW2); assay: biochemical
T2 sequence (Q99ZW2 whole entry, one chain of several): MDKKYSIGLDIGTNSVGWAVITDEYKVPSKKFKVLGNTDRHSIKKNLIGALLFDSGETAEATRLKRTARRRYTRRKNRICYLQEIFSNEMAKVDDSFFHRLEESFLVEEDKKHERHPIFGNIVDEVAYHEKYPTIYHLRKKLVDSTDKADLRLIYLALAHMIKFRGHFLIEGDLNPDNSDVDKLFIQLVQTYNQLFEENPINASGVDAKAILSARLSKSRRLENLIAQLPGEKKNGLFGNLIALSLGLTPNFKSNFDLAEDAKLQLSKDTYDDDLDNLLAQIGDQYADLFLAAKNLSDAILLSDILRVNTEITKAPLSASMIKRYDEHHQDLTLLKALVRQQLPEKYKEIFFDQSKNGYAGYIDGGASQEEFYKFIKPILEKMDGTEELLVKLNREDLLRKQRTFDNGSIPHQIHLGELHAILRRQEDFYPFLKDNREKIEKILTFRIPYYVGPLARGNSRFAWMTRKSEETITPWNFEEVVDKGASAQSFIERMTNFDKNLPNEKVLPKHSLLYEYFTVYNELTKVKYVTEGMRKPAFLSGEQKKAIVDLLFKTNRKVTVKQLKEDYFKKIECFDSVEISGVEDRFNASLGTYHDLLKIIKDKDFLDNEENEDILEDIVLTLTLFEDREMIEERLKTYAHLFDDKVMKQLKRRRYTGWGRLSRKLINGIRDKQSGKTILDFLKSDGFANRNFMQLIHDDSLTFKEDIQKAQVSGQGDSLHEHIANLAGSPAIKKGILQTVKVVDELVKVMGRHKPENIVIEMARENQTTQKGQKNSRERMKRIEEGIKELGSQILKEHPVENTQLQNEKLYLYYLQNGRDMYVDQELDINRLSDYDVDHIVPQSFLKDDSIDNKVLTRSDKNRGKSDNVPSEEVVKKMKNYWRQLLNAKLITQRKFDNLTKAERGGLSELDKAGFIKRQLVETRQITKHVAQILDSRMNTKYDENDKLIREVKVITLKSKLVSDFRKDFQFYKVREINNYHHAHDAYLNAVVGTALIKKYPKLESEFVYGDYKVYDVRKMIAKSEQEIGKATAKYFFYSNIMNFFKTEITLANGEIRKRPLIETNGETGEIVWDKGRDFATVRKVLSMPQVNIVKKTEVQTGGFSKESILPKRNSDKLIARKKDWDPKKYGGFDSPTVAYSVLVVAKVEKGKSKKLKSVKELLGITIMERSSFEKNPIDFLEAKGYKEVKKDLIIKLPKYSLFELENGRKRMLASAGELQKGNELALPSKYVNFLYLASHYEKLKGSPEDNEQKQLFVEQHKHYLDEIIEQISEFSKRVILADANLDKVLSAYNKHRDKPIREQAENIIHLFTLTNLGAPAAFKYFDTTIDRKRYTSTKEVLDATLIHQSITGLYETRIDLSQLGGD
SpCas9:gRNA complex [6] = biological target: T2, SpCas9:gRNA complex; details: control without BRD7586 scaffold

T1 sequence (Q99ZW2 whole entry): as the sequence (Q99ZW2 whole entry, one chain of several) above

| Structure (SMILES) | Hibit assay-% inhibition (SpCas9 [1]) | eGFP disruption-% inhibition (SpCas9 [2]) | % GFP+, Rep 1 (SpCas9 [2]; eGFP assay) | Z score Rep1 (SpCas9 [2]; eGFP assay) | % GFP+, Rep 2 (SpCas9 [2]; eGFP assay) | Z score Rep1 (SpCas9 [2]) | SpCas9 eGFP disruption Rep1 (SpCas9 [2]) | Normalized Z rep1 (SpCas9 [2]) | Z socre Rep2 (SpCas9 [2]) | SpCas9 eGFP disruption Rep2 (SpCas9 [2]) | Normalized Z rep2 (SpCas9 [2]) | Average Normalized Z score (SpCas9 [3]) | avg z score primary (SpCas9 [3]) | Normalized Z score 1 (SpCas9 [3]) | Normalized Z score 2 (SpCas9 [3]) | Activity against FnCpf1 in gel cleavage assay (FnCpf1) | Activity against Nde1 in gel cleavage assay [4] | Average Normalized Z score (SpCas9 [3]; average of replicates) | Kd (SpCas9:gRNA complex [5]) | Binding in BLI (SpCas9:gRNA complex [6]) |
| --- | --- | --- | --- | --- | --- | --- | --- | --- | --- | --- | --- | --- | --- | --- | --- | --- | --- | --- | --- | --- |
| O=C(CCS(=O)(=O)c1ccc(Cl)cc1)Nc1nc(-c2ccccn2)cs1 [Compound G786-1324] | 94.5% | 32.94% | 81.43% | 3.12 | 79.94% | 3.12 | 81.427 | 0.30 | 4.86 | 79.939 | 0.21 | 0.05 | 4.44 | 0.05 | 0.04 | – | – | – | – | – |
| O=C(CCS(=O)(=O)c1ccc(Cl)cc1)Nc1nc(-c2ccncc2)cs1 [Compound G786-1325] | 97.09% | 56.65% | 86.01% | 5.65 | 86.24% | 5.65 | 86.012 | 0.54 | 12.44 | 86.243 | 0.54 | 0.04 | 4.35 | 0.05 | 0.04 | – | – | – | – | – |
| Cc1ccccc1C(=O)Nc1nc2ccc(S(N)(=O)=O)cc2s1 [Compound G786-1547] | 4.3% | 42.41% | 82.8% | 3.88 | 84.09% | 3.88 | 82.802 | 0.37 | 9.85 | 84.086 | 0.43 | 0.04 | 3.81 | 0.04 | 0.04 | – | – | – | – | – |
| CCc1cccc(-n2nnnc2N2CCN(C(=O)Nc3cccc(C)c3)CC2)c1 [Compound L378-0350] | – | – | – | – | – | – | – | – | – | – | – | – | – | – | – | active in Fncpf1 | not Nde1 | – | – | – |
| CCc1cccc(-n2nnnc2N2CCN(C(=O)Nc3ccc(C)cc3C)CC2)c1 [Compound L378-0355] | – | – | – | – | – | – | – | – | – | – | – | – | – | – | – | active in Fncpf1 | not Nde1 | – | – | – |
| CCc1cccc(-n2nnnc2N2CCN(C(=O)Nc3ccc(Br)c(C)c3)CC2)c1 [Compound L378-0372] | – | – | – | – | – | – | – | – | – | – | – | – | – | – | – | active in Fncpf1 | not Nde1 | – | – | – |
| CCN1C(=O)c2cccc3cccc1c23 [Compound T0503-6911] | 18.06% | 26.33% | 67.52% | 3.76 | 66.59% | 3.76 | 67.522 | 0.26 | 6.09 | 66.588 | 0.29 | – | 6.86 | 0.06 | 0.10 | – | – | 0.08 | – | – |
| NC1=C(c2nc3ccccc3s2)C(=O)CN1N=Cc1ccc(-c2ccc(S(=O)(=O)Nc3ncccn3)cc2)o1 [Compound T5371551] | −12.66% | 22.88% | 64.28% | 2.50 | 76.75% | 2.50 | 64.278 | 0.17 | 11.57 | 76.754 | 0.56 | – | 9.04 | 0.61 | 0.58 | – | – | 0.60 | – | – |
| Cc1nc2ccccc2c(C)c1CC(=O)N1CCN(c2ccc(O)cc2)CC1 [Compound T5461482] | 36.6% | 24.48% | 66.84% | 3.50 | 67.11% | 3.50 | 66.842 | 0.24 | 6.37 | 67.113 | 0.31 | – | 3.23 | 0.09 | 0.10 | – | – | 0.10 | – | – |
| O=C(CSc1nccn1-c1cccc(F)c1)N1CCN(c2ccc(O)cc2)CC1 [Compound T5535170] | 68.25% | 27.53% | 67.96% | 3.93 | 65.34% | 3.93 | 67.964 | 0.28 | 5.41 | 65.339 | 0.26 | – | 4.37 | 0.28 | 0.33 | – | – | 0.31 | – | – |
| O=C(CCCCC1SC[C@H]2NC(=O)N[C@@H]12)NCCOCCOCCOCCC(=O)NCCOc1ccc(S(=O)(=O)CCC(=O)Nc2nc(-c3ccncc3)cs2)cc1 (some centres unmarked) [biotin-BRD7586] | – | – | – | – | – | – | – | – | – | – | – | – | – | – | – | – | – | – | 520 nM | – |
| [N-]=[N+]=NCCOCCOCCOCCNC(=O)CCCC[C@@H]1SC[C@@H]2NC(=O)N[C@@H]21 [biotin-PEG3-azide] | – | – | – | – | – | – | – | – | – | – | – | – | – | – | – | – | – | – | – | No detectable binding |
